The record followed here is BindingDB's records for doi:10.7270/Q2125R2H (University of Pittsburgh, 2007).

The assay deals with T1, M-phase inducer phosphatase 2 (Homo sapiens, UniProt P30305).
T1 sequence (P30305 whole entry): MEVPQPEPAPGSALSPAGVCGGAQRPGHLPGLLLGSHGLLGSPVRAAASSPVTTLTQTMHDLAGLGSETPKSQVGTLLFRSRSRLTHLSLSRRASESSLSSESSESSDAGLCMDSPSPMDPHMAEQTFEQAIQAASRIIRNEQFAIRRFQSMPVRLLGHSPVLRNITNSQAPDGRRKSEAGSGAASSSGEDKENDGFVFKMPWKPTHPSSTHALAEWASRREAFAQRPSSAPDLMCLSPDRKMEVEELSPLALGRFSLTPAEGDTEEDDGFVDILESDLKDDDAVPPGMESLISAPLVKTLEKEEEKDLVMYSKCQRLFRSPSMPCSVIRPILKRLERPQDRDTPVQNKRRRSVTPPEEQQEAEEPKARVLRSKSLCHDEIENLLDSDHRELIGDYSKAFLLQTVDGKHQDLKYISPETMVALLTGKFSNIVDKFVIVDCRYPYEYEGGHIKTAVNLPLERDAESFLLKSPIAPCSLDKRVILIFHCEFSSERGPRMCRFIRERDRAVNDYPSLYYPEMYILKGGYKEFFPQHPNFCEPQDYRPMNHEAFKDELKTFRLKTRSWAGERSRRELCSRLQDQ
The experiment in a line: inhibition of Cdc25B dual-specificity phosphatase – biochemical, probe assessment, dose response (AID 676).
Turning to `Cc1ccc(C)n1-c1cccc(C(=O)O)c1`, the half-inhibitory concentration (IC50) (as a rule, the concentration that gives 50% inhibition) is > 50 µM.
Consider `O=C(Nc1ccc2nc(-c3ccco3)c(-c3ccco3)nc2c1)N1CCCCCC1`, for which half-maximal inhibition (IC50) required 31.4 µM.
In the case of `Cc1ccc2c(c1C)NC(C(=O)O)C1CC=CC21` (stereo not drawn), the IC50 came out at 15.9 µM.
Molecule `Cn1ncnc2c(=O)n(C)c(=O)nc1-2` gave an IC50 of 0.396 µM.
The result for `[O-]/[N+](=C\c1ccncc1)c1ccccc1` reads > 50 µM; that for `O=C1C=Cc2ccccc2C1=O` [1,2-dihydronaphthalene-1,2-dione], 19 µM.
`CCn1nc(-c2ccccc2)nc2c(=O)n(C)c(=O)nc1-2` [1-Ethyl-6-methyl-3-phenyl-1H-pyrimido[5,4-e][1,2,4]triazine-5,7-dione] registered an IC50 of 0.447 µM.
Next, `Cc1cc(C)n2c(SCC(=O)N3CCN(S(=O)(=O)c4ccc(Cl)cc4)CC3)nnc2n1` [1-[4-(4-chlorophenyl)sulfonyl-1-piperazinyl]-2-[(5,7-dimethyl-[1,2,4]triazolo[4,3-a]pyrimidin-3-yl)thio]ethanone]: > 50 µM; `CCn1nc(-c2cccs2)nc2c(=O)n(C)c(=O)nc1-2` [1-ethyl-6-methyl-3-thiophen-2-yl-pyrimido[5,4-e][1,2,4]triazine-5,7-dione]: 0.552 µM.
Next, `O=C(Nc1ccccc1)c1ccc2nc(-c3ccco3)c(-c3ccco3)nc2c1` [2,3-di-2-furyl-N-phenyl-6-quinoxalinecarboxamide]: 35.6 µM.
Next, `CC(C)Cn1c(N)c(C(=O)COC(=O)c2cc(-c3ccco3)nc3ccccc23)c(=O)n(C)c1=O` [2-(2-furanyl)-4-quinolinecarboxylic acid [2-[4-amino-1-methyl-3-(2-methylpropyl)-2,6-dioxo-5-pyrimidinyl]-2-oxoethyl] ester]: 46.6 µM.
As to `CCOc1ccc(-c2cc3nc(C4CCN(C(=O)OC(C)(C)C)CC4)c(C(=O)O)cn3n2)cc1` [2-(4-ethoxyphenyl)-5-[1-[(2-methylpropan-2-yl)oxy-oxomethyl]-4-piperidinyl]-6-pyrazolo[1,5-a]pyrimidinecarboxylic acid], the half-inhibitory concentration (IC50) was > 50 µM.
Next, `COc1ccc(-c2cc3nc(C4CCN(C(=O)OC(C)(C)C)CC4)c(C(=O)O)cn3n2)cc1` [2-(4-methoxyphenyl)-5-[1-[(2-methylpropan-2-yl)oxy-oxomethyl]-4-piperidinyl]-6-pyrazolo[1,5-a]pyrimidinecarboxylic acid]: > 50 µM.
Take `CCn1c(SCC(=O)Nc2nc3ccc(OC)cc3s2)nc2c1c(=O)n(C)c(=O)n2C` [2-(7-Ethyl-1,3-dimethyl-2,6-dioxo-2,3,6,7-tetrahydro-1H-purin-8-ylsulfanyl)-N-(6-methoxy-benzothiazol-2-yl)-acetamide]: the IC50 was > 50 µM.
The result for `Cc1cccc(NC(=O)c2cc(NC(=O)C3CCCCC3C(=O)O)ccc2N2CCCCC2)c1` (stereo not drawn) [2-({[3-{[(3-methylphenyl)amino]carbonyl}-4-(1-piperidinyl)phenyl]amino}carbonyl)cyclohexanecarboxylic acid] reads > 50 µM; that for `Cc1ccc(/C=C/C2=Cc3c(sc(NC(=O)CSc4nnc(N)[nH]4)c3C#N)C(C)(C)C2)o1` [2-[(5-azanyl-1H-1,2,4-triazol-3-yl)sulfanyl]-N-[3-cyano-7,7-dimethyl-5-[(E)-2-(5-methylfuran-2-yl)ethenyl]-6H-1-benzothiophen-2-yl]ethanamide], 46.9 µM.
The result for `N#Cc1c(N)sc(=S)c2c1CCN(Cc1ccccc1)C2` [3-Amino-7-benzyl-1-thioxo-5,6,7,8-tetrahydro-1H-thiopyrano[3,4-c]pyridine-4-carbonitrile] reads 4.99 µM.
Next, `CCCSc1nnc(NC(=O)c2sc3nc(-c4cccs4)ccc3c2N)s1` [3-amino-N-(5-propylsulfanyl-1,3,4-thiadiazol-2-yl)-6-thiophen-2-ylthieno[2,3-b]pyridine-2-carboxamide]: > 50 µM; `O=C1Nc2ccccc2SC(c2ccccc2)C1O` (stereo not drawn) [3-hydroxy-2-phenyl-2,3-dihydro-1,5-benzothiazepin-4(5H)-one]: > 50 µM; `COc1ccc(Br)cc1C=c1sc2nc(-c3ccco3)nn2c1=O` [5-[(5-bromanyl-2-methoxy-phenyl)methylidene]-2-(furan-2-yl)-[1,3]thiazolo[3,2-b][1,2,4]triazol-6-one]: 14.8 µM.
On to `CCOc1cc(/C=C(/C#N)c2ccc(F)cc2)ccc1OCc1ccc(C(=O)O)o1` [5-[[4-[(E)-2-cyano-2-(4-fluorophenyl)ethenyl]-2-ethoxyphenoxy]methyl]furan-2-carboxylic acid], for which the 50% inhibitory concentration (IC50) is > 50 µM.
For `Cc1cccc(N2CCN(C(=O)Cc3c(C(=O)O)[nH]c4ccc(Cl)cc34)CC2)c1C` [5-chloranyl-3-[2-[4-(2,3-dimethylphenyl)piperazin-1-yl]-2-oxidanylidene-ethyl]-1H-indole-2-carboxylic acid], the IC50 is > 50 µM.
Next, `CCCCCNC(=O)c1ccc2c(=O)[nH]c3c(C(=O)NCC4CCCO4)sc(=S)n3c2c1` (stereo not drawn) [5-oxo-N3-(2-oxolanylmethyl)-N8-pentyl-1-sulfanylidene-4H-thiazolo[3,4-a]quinazoline-3,8-dicarboxamide]: > 50 µM.
`O=C(c1cccs1)c1no[n+]([O-])c1C(=O)c1cccs1` [(5-oxidanidyl-4-thiophen-2-ylcarbonyl-1,2,5-oxadiazol-5-ium-3-yl)-thiophen-2-yl-methanone]: the IC50 was > 50 µM.
Next, `CCCCC[C@H](O)C=C[C@H]1C=CC(=O)[C@@H]1C/C=C\CCCC(=O)O` [(Z)-7-[(1R,5S)-2-oxidanylidene-5-[(E,3S)-3-oxidanyloct-1-enyl]cyclopent-3-en-1-yl]hept-5-enoic acid]: > 50 µM; `CC1=C(/C=C/C(C)=C/C=C/C(C)=C/C(=O)O)C(C)(C)CCC1` [ALL-TRANS-RETINOIC ACID]: > 50 µM; `COCCCn1c(N)c(C(=O)NCCC(C)C)c2nc3ccccc3nc21` [MLS000041744]: > 50 µM.
Molecule `CCn1c(SCC(=O)Nc2ccc3c(c2)c2ccccc2n3CC)nnc1-c1ccco1` [MLS000050867] yielded an IC50 of 46.1 µM.
For `COc1ccc(Cn2c(C)nc3c(c2=O)c2nc4ccccc4nc2n3Cc2ccco2)cc1` [MLS000079944], the concentration for half-maximal inhibition (IC50) was determined as 46.8 µM.
The result for `Cc1ccc(-c2csc(NC(=O)c3ccno3)n2)cc1` [MLS000081820] reads 35.8 µM; that for `CC(C)Sc1nc2sc3c(c2c2nnc(SCC(=O)NCc4ccco4)n12)CCCC3` [MLS000082957], > 50 µM; that for `Cc1cc(NC(=O)c2ccc(S(=O)(=O)N3CCCC3)cc2)nc2c1c(=O)oc1ccccc12` [MLS000091355], > 50 µM.
Next, `FC(F)(F)c1ccc(N2CCOCC2)c(Nc2nc3ccccc3n3cnnc23)c1` [MLS000093276]: > 50 µM; `COC(=O)c1ccccc1NC(=O)CN1C(=O)C2CCCN2c2ncc(Cl)cc21` (stereo not drawn) [MLS000094302]: > 50 µM.
Turning to `CCc1ccc(NC(=O)CSc2nc3ccccc3c(=O)n2CCN2CCOCC2)cc1` [MLS000095236], the 50% inhibitory concentration (IC50) was > 50 µM.
The result for `Cc1c(N=c2c(=O)c3ccccc3c2=O)c(=O)n(-c2ccccc2)n1C` [MLS000105950] reads 13.7 µM; that for `CCOc1ccc2noc3c2c1C(=O)c1ccccc1-3` [MLS000106837], > 50 µM.
`COc1ccc2noc3c2c1C(=O)c1ccccc1-3` [MLS000106874]: the IC50 is > 50 µM.
The result for `CCOC(=O)c1ccc2c(c1)C1C=CCC1C(C(=O)O)N2` (stereo not drawn) [MLS-0025126.0001] reads 18.2 µM; that for `O=C(NC1(O)C(=O)c2ccccc2C1=O)c1ccccc1` [N-(2-hydroxy-1,3-dioxo-2-indenyl)benzamide], 12.6 µM; that for `O=C(OC1CCCCC1)c1ccc2c(c1)C1C=CCC1C(C(=O)O)N2` (stereo not drawn) [SMR000019385], 9.6 µM.
Next, `CCCCn1c(NC(=O)c2ccccc2)c(C#N)c2nc3ccccc3nc21` [SMR000060333]: 31.5 µM; `N#Cc1c(N2CCCC2)nc(N)c2c(N)nc(N3CCCC3)cc12` [SMR000061605]: 21.2 µM.
